Test results published in paper PMC3912202 (2014).

Columns and labels:
[1] = tested on: double stranded polyriboadenylic acid (ds poly-A) (RNA, polymer) A; assay: circular dichroism; details: 10 mM citrate-phosphate buffer, pH 4.5, 20°C; 100.0 µM ds poly-A, up to 55.60 µM ST
[2] = tested on: single stranded polyriboadenylic acid (ss poly-A) (RNA, polymer) A; assay: absorption titration, Scatchard, McGhee-von Hippel fit; details: 10 mM Na+; 10 mM citrate-phosphate buffer, pH 7.0, 20°C; intrinsic constant, per nucleotide; per base
[3] = tested on: double stranded polyriboadenylic acid (ds poly-A) (RNA, polymer) A; assay: absorption titration; details: 10 mM citrate-phosphate buffer, pH 4.5, 20°C; up to P/D 100 (301.09 µM ds poly-A, 3.05 µM ST)
[4] = tested on: double stranded polyriboadenylic acid (ds poly-A) (RNA, polymer) A; assay: fluorescence titration; details: 10 mM citrate-phosphate buffer, pH 4.5, 20°C; up to P/D 100 (510.50 µM ds poly-A, 5.0 µM ST)
[5] = tested on: single stranded polyriboadenylic acid (ss poly-A) (RNA, polymer) A; assay: fluorescence titration, Scatchard, McGhee-von Hippel fit; details: 10 mM Na+; 10 mM citrate-phosphate buffer, pH 7.0, 20°C; intrinsic constant, per nucleotide; per base
[6] = tested on: double stranded polyriboadenylic acid (ds poly-A) (RNA, polymer) A; assay: thermal melting profile (CD); details: 10 mM citrate-phosphate buffer, pH 4.5; 100.0 µM ds poly-A, D/P 0.53; no change, transition around 74°C

## Cc1cc2nc3cc(C)c(N)cc3[n+](-c3ccccc3)c2cc1N
[1]
  binding: no
[2]
  K′: 5.98±0.20 × 10^5 M^-1
[3]
  binding: no
[4]
  binding: no
[5]
  K′: 6.15±0.20 × 10^5 M^-1
[6]
  binding: no
